For this assay, the target named is Cathepsin S (Homo sapiens, UniProt P25774). The assay can be described thus: Cathepsin S inhibition, fluorogenic peptide substrate kinetic assay. The format is biochemical. The settings on record: Table II; Cathepsin S inhibition constant, pH5.5; read-out: Ki Cat. S. In short, it runs like this:
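Ki values derive from apparent constants fitted to progress curves, corrected for competition with substrate via [S] and Km. Kinetics were monitored at 380 nm excitation/450 nm emission, after substrate addition (Ac-HPVK-ACC, 50 μM final) to start the reaction.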

Molecules are shown by their SMILES.

Broadly, the Ki is the equilibrium dissociation constant of an inhibitor or competing ligand from its target.

Sequence of Cathepsin S (P25774 115-331, species assumed): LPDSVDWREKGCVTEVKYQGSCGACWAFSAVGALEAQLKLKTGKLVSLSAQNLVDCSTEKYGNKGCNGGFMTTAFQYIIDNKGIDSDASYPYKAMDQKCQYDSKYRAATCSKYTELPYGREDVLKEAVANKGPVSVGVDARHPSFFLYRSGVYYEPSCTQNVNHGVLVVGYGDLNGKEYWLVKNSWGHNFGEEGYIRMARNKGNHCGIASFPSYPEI

Turning to `C[C@@H](CNc1ccc(OC(F)(F)F)cc1)NC(=O)[C@H](CC1CCCCC1)NC(=O)O[C@H]1CCOC1` [Compound 189, {2-Cyclohexyl-1-(S)-[1-(S)-methyl-2-(4-trifluoromethoxy-phenylamino)-ethylcarbamoyl]-ethyl}-carbamic acid tetrahydrofuran-3-(S)-yl ester], the inhibition constant Ki is less than 100 nM.
Then `COCC(=O)N[C@@H](CC1CCCCC1)C(=O)N[C@@H](C)CNc1ccc(OC(F)(F)F)cc1` [Compound 124, 3-Cyclohexyl-2-(S)-(2-methoxy-acetylamino)-N-[1-(S)-methyl-2-(4-trifluoromethoxy-phenylamino)-ethyl]-propionamide], with less than 100 nM.
Then `Cc1cccc(C(=O)NC(C(=O)NCCN2CCc3cc(F)ccc32)c2ccc(Cl)cc2Cl)c1` (racemic) [Compound 213, (R,S)-N-((2-(5-fluoroindolin-1-yl)ethylcarbamoyl)(2,4-dichlorophenyl)methyl)-3-methylbenzamide], with less than 1000 nM.
To `Cc1cccc(C(=O)N[C@H](C(=O)NCCN2CCc3cc(F)ccc32)C2CCCCC2)c1` [Compound 193, N-((S)-(2-(5-fluoroindolin-1-yl)ethylcarbamoyl)(cyclohexyl)methyl)-3-methylbenzamide] belongs less than 1000 nM; to `C[C@@H](CNc1cccc(Cl)c1)NC(=O)[C@H](CC1CCCCC1)NC(=O)c1ccc(-c2cccc(F)c2)o1` [Compound 94, 5-(3-Fluoro-phenyl)-fuiran-2-carboxylic acid {1-(S)-[2-(3-chloro-phenylamino)-1-(S)-methyl-ethylcarbamoyl]-2-cyclohexyl-ethyl}-amide], less than 100 nM; to `COc1ccc(N[C@@H]2CCCC[C@H]2NC(=O)[C@H](CC(C)C)NC(=O)c2cccc(C)c2)cc1` (mixture of isomers) [Compound 34, N-{1-(S)-[trans-2-(4-Methoxy-phenylamino)-cyclohexylcarbamoyl]-3-methyl-butyl}-3-methyl-benzamide], less than 1000 nM.
`C[C@@H](CNc1ccc(OC(F)(F)F)cc1)NC(=O)[C@H](CC1CCCCC1)NC(=O)c1ccc(-c2cccnc2)o1` [Compound 143, 5-Pyridin-3-yl-furan-2-carboxylic acid {2-cyclohexyl-1-(S)-[1-(S)-methyl-2-(4-trifluoromethoxy-phenylamino)-ethylcarbamoyl]-ethyl}-amide]: the inhibition constant (Ki) was less than 100 nM.
To `C[C@@H](CNc1ccc(OC(F)F)cc1)NC(=O)[C@H](CC1CCCCC1)NC(=O)c1ccc(-c2cccc(F)c2)o1` [Compound 84, 5-(3-Fluoro-phenyl)-furan-2-carboxylic acid {2-cyclohexyl-1-(S)-[2-(4-difluoromethoxy-phenylamino)-1-(S)-methyl-ethylcarbamoyl]-ethyl}-amide] belongs less than 100 nM.
For `C[C@@H](CNc1ccc(O)cc1)NC(=O)[C@H](CC1CCCCC1)NC(=O)c1ccc(-c2cccc(F)c2)o1` [Compound 125, 5-(3-Fluoro-phenyl)-fuiran-2-carboxylic acid {2-cyclohexyl-1-(S)-[2-(4-hydroxy-phenylamino)-1-(S)-methyl-ethylcarbamoyl]-ethyl}-amide], the Ki is less than 100 nM.
Then `COc1cccc(C(=O)N[C@@H](CC(C)(C)C)C(=O)N[C@@H](CC#N)CN2CCc3cc(F)ccc32)c1` [Compound 165, N-{1-(S)-[2-Cyano-1-(S)-(5-fluoro-2,3-dihydro-indol-1-ylmethyl)-ethylcarbamoyl]-3,3-dimethyl-butyl}-3-methoxy-benzamide], with less than 100 nM; and `C[C@@H](CNc1ccc(OC(F)(F)F)cc1)NC(=O)[C@H](CC1CCCCC1)NC(=O)OC1CCS(=O)(=O)CC1` [Compound 186, (S,S)-{2-Cyclohexyl-1-[1-methyl-2-(4-trifluoromethoxy-phenylamino)-ethylcarbamoyl]-ethyl}-carbamic acid 1,1-dioxo-hexahydro-1λ^6-thiopyran-4-yl ester], with less than 100 nM.

Values taken from US20040248887A1, “Inhibitors of cathepsin S” (IRM LLC, priority 2003, published 2004).
